In patent US5922891A, “2-substituted 1,8-dihydroxy-9(10H)-anthracenone pharmaceuticals” (priority 1997, dated 1999):

Assays:
5-LO in bovine PMNL = biological target: T1, 5-LO in bovine PMNL (Bos taurus, UniProt F1MQ78); assay: Inhibition of 5-lipoxygenase (5-HETE and LTB4 biosynthesis) in Ca-ionophore-stimulated bovine PMNL; type: cell-based; conditions: N = 3 or more
T1 construct: The purified PMNLs were suspended at a concentration of; endogenous in cells; host or cells: polymorphonuclear leukocytes isolated from bovine blood
T1 sequence (F1MQ78 1-674): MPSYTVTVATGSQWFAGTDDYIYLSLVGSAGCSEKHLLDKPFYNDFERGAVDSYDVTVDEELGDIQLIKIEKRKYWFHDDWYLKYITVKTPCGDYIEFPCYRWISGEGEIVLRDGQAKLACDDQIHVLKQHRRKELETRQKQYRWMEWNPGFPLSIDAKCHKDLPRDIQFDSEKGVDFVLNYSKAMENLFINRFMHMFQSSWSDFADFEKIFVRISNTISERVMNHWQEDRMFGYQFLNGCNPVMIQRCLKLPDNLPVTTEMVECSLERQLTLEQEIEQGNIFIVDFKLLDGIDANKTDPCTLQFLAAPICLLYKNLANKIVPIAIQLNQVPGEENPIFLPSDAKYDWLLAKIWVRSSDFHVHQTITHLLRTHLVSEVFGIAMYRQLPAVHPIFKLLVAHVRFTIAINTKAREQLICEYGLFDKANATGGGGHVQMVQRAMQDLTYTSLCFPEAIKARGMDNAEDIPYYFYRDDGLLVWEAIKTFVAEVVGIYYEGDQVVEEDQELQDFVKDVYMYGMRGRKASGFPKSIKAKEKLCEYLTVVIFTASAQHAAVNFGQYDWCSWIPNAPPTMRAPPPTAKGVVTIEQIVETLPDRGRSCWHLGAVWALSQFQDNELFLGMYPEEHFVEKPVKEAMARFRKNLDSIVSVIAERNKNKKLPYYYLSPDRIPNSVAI

HaCaT cells = assay: Antiproliferative activity against HaCaT cells (human keratinocyte cell line); type: cell-based; conditions: 48 h, read-out: AA IC50 (antiproliferative activity)

Compound	IC50 (5-LO in bovine PMNL)	IC50 (HaCaT cells)
COC(=O)CCCCc1ccc2c(c1O)C(=O)c1c(O)cccc1C2 [IVB, Methyl 5-(9,10-Dihydro-1,8-dihydroxy-9-oxo-2-anthracene)pentanoate]	> 30 µM	1800 nM
COC(=O)CCCCCc1ccc2c(c1O)C(=O)c1c(O)cccc1C2 [VB, Methyl 6-(9,10-Dihydro-1,8-dihydroxy-9-oxo-2-anthracene) hexaonate]	> 30 µM	
COC(=O)C(c1ccc2c(c1O)C(=O)c1c(O)cccc1C2)C(C)C (stereo not drawn) [VIIIB, Methyl 2-(9,10-Dihydro-1,8-dihydroxy-9-oxo-2-anthracene)-3-methylbutanoate]	> 30 µM	
CC(C(=O)N(C)O)c1ccc2c(c1O)C(=O)c1c(O)cccc1C2 (stereo not drawn) [VIID, N-Hydroxy-N-methyl-2-(9,10-dihydro-1,8-dihydroxy-9-oxo-2-anthracene)propionamide]	4 µM	1500 nM
